Each molecule was assayed against human PDE1b enzyme (Homo sapiens (Human), UniProt Q01064) (assay: PDE1b inhibitory assay (IMAP TR-FRET)). Details: not given.
`COc1ccc(Cn2c(=O)n3ncnc3c3c4c(sc32)N(C(=O)c2ccccc2)CCC4)cc1OC` [Example 176, 8-Benzoyl-6-(3,4-dimethoxybenzyl)-8,9,10,11-tetrahydropyrido[3′,2′:4,5]thieno[3,2-e][1,2,4]triazolo[1,5-c]pyrimidin-5(6H)-one] showed an EC50 of 1 to 10 µM.
`COc1ccc(Cn2c(=O)n3ncnc3c3c4c(sc32)CN(CC2CNCCO2)CC4)cc1` (stereo not drawn) [Example 180, 6-(4-Methoxybenzyl)-9-(morpholin-2-ylmethyl)-8,9,10,11-tetrahydropyrido[4′,3′:4,5]thieno[3,2-e][1,2,4]triazolo[1,5-c]pyrimidin-5(6H)-one] showed an EC50 of 0.1 to 1 µM.
Molecule `COc1ccc(Cn2c(=O)n3ncnc3c3c4c(sc32)CN(C(=O)C2CCNC2)CC4)cc1` (stereo not drawn) [Example 181, 6-(4-Methoxybenzyl)-9-(pyrrolidine-3-carbonyl)-8,9,10,11-tetrahydropyrido[4′,3′:4,5]thieno[3,2-e][1,2,4]triazolo[1,5-c]pyrimidin-5(6H)-one] has an EC50 of 0.1 to 1 µM.
For `COc1ccc(Cn2c(=O)n3ncnc3c3c4c(sc32)CN(CC2CCNCC2)CC4)cc1` [Example 182, 6-(4-Methoxybenzyl)-9-(piperidin-4-ylmethyl)-8,9,10,11-tetrahydropyrido[4′,3′:4,5]thieno[3,2-e][1,2,4]triazolo[1,5-c]pyrimidin-5(6H)-one], the EC50 was 0.1 to 1 µM.
Work on `COc1ccc(Cn2c(=O)n3ncnc3c3c4c(sc32)CNCC4)cc1` [Example 183, 6-(4-Methoxybenzyl)-8,9,10,11-tetrahydropyrido[4′,3′:4,5]thieno[3,2-e][1,2,4]triazolo[1,5-c]pyrimidin-5(6H)-one] yielded an EC50 of 0.1 to 1 µM.
`COc1ccc(Cn2c(=O)n3ncnc3c3c4c(sc32)CCNC4)cc1` [Example 184, 6-(4-Methoxybenzyl)-8,9,10,11-tetrahydropyrido[3′,4′:4,5]thieno[3,2-e][1,2,4]triazolo[1,5-c]pyrimidin-5(6H)-one] showed an EC50 of 0.1 to 1 µM.
In the case of `COc1ccc(Cn2c(=O)n3ncnc3c3cc(CN4CCC(Oc5ccncc5)CC4)sc32)cc1` [Example 185, 6-(4-Methoxybenzyl)-8-((4-(pyridin-4-yloxy)piperidin-1-yl)methyl)thieno[3,2-e][1,2,4]triazolo[1,5-c]pyrimidin-5(6H)-one], the EC50 is reported as 0.1 to 1 µM.
`COc1ccc(Cn2c(=O)n3ncnc3c3cc(CN4CCN(c5ccc(F)cc5)CC4)sc32)cc1` [Example 188, 8-((4-(4-Fluorophenyl)piperazin-1-yl)methyl)-6-(4-methoxybenzyl)thieno[3,2-e][1,2,4]triazolo[1,5-c]pyrimidin-5(6H)-one] showed an EC50 of 0.1 to 1 µM.
Work on `COc1ccc(Cn2c(=O)n3ncnc3c3cc(CN4CC(Oc5ccccc5F)C4)sc32)cc1` [Example 190, 8-((3-(2-Fluorophenoxy)azetidin-1-yl)methyl)-6-(4-methoxybenzyl)thieno[3,2-e][1,2,4]triazolo[1,5-c]pyrimidin-5(6H)-one] yielded an EC50 of 1 to 10 µM.
Molecule `COc1ccc(Cn2c(=O)n3ncnc3c3cc(CN4CCC5(C4)CC5(F)F)sc32)cc1` (stereo not drawn) [Example 192, 8-((1,1-Difluoro-5-azaspiro[2.4]heptan-5-yl)methyl)-6-(4-methoxybenzyl)thieno[3,2-e][1,2,4]triazolo[1,5-c]pyrimidin-5(6H)-one] has an EC50 of 0.1 to 1 µM.
`COc1ccc(Cn2c(=O)n3ncnc3c3c(CN4CCCC(CO)(CC(C)C)C4)csc32)cc1` (stereo not drawn) [Example 195, 9-((3-(Hydroxymethyl)-3-isobutylpiperidin-1-yl)methyl)-6-(4-methoxybenzyl)thieno[3,2-e][1,2,4]triazolo[1,5-c]pyrimidin-5(6H)-one] showed an EC50 of 0.1 to 1 µM.
`CCN(Cc1cc2c(s1)n(Cc1ccc(OC)cc1)c(=O)n1ncnc21)C1CCOC(C)(C)C1` (stereo not drawn) [Example 196] was tested, and the EC50 was 1 to 10 µM.
In the case of `CCN(Cc1csc2c1c1ncnn1c(=O)n2Cc1ccc(OC)cc1)CC1CCOCC1` [Example 197, 9-((Ethyl((tetrahydro-2H-pyran-4-yl)methyl)amino)methyl)-6-(4-methoxybenzyl)thieno[3,2-e][1,2,4]triazolo[1,5-c]pyrimidin-5(6H)-one], the EC50 is reported as 0.1 to 1 µM.
`CCN(Cc1cc2c(s1)n(Cc1ccc(OC)cc1)c(=O)n1ncnc21)CC1CCOCC1` [Example 198, 8-((Ethyl((tetrahydro-2H-pyran-4-yl)methyl)amino)methyl)-6-(4-methoxybenzyl)thieno[3,2-e][1,2,4]triazolo[1,5-c]pyrimidin-5(6H)-one] gave an EC50 of 1 to 10 µM.
For `COc1ccc(Cn2c(=O)n3ncnc3c3cc(CN4C[C@@H](C)O[C@@H](C)C4)sc32)c(F)c1F` [Example 200, 6-(2,3-Difluoro-4-methoxybenzyl)-8-(((2R,6S)-2,6-dimethylmorpholino)methyl)thieno[3,2-e][1,2,4]triazolo[1,5-c]pyrimidin-5(6H)-one], the EC50 was 1 to 10 µM.
For `COc1ccc(Cn2c(=O)n3ncnc3c3cc(CN(C)C4CCOCC4)sc32)cc1` [Example 204, 6-(4-Methoxybenzyl)-8-((methyl(tetrahydro-2H-pyran-4-yl)amino)methyl)thieno[3,2-e][1,2,4]triazolo[1,5-c]pyrimidin-5(6H)-one], the EC50 was 1 to 10 µM.
`COc1ccc(Cn2c(=O)n3ncnc3c3cc(CN4CCOCC4)sc32)c(F)c1` [Example 208, 6-(2-Fluoro-4-methoxybenzyl)-8-(morpholinomethyl)thieno[3,2-e][1,2,4]triazolo[1,5-c]pyrimidin-5(6H)-one] gave an EC50 of 0.1 to 1 µM.

Same assay, conditions: negative log of half-maximal molar inhibitory concentration; 200 nM FAM-cAMP; reported as ranges
`COc1ccc(Cn2c(=O)n3ncnc3c3c4c(sc32)CN(C(=O)C2CCOC2)CC4)cc1` (stereo not drawn) [Example 170, 6-(4-Methoxybenzyl)-9-(tetrahydrofuran-3-carbonyl)-8,9,10,11-tetrahydropyrido[4′,3′:4,5]thieno[3,2-e][1,2,4]triazolo[1,5-c]pyrimidin-5(6H)-one] was tested, and the “PDE1b (pEC50)” value was >7.
For `COc1ccc(Cn2c(=O)n3ncnc3c3c4c(sc32)N(C(=O)C2CC2)CCC4)cc1` [Example 174, 8-(Cyclopropanecarbonyl)-6-(4-methoxybenzyl)-8,9,10,11-tetrahydropyrido[3′,2′:4,5]thieno[3,2-e][1,2,4]triazolo[1,5-c]pyrimidin-5(6H)-one], the “PDE1b (pEC50)” value was >7.
With `COc1ccc(Cn2c(=O)n3ncnc3c3c4c(sc32)N(C(=O)C2CCOC2)CCC4)cc1` (stereo not drawn) [Example 175, 6-(4-Methoxybenzyl)-8-(tetrahydrofuran-3-carbonyl)-8,9,10,11-tetrahydropyrido[3′,2′:4,5]thieno[3,2-e][1,2,4]triazolo[1,5-c]pyrimidin-5(6H)-one] the “PDE1b (pEC50)” value was >7.
For `COc1ccc(Cn2c(=O)n3ncnc3c3c4c(sc32)CN(c2ccccn2)CC4)cc1` [Example 179, 6-(4-Methoxybenzyl)-9-(pyridin-2-yl)-8,9,10,11-tetrahydropyrido[4′,3′:4,5]thieno[3,2-e][1,2,4]triazolo[1,5-c]pyrimidin-5(6H)-one], the “PDE1b (pEC50)” value was >7.
In the case of `COc1ccc(Cn2c(=O)n3ncnc3c3cc(CN4CCN(c5ccccc5F)CC4)sc32)cc1` [Example 186, 8-((4-(2-Fluorophenyl)piperazin-1-yl)methyl)-6-(4-methoxybenzyl)thieno[3,2-e][1,2,4]triazolo[1,5-c]pyrimidin-5(6H)-one], the “PDE1b (pEC50)” value is reported as >7.
In the case of `COc1ccc(Cn2c(=O)n3ncnc3c3cc(CN4CCN(c5cccc(F)c5)CC4)sc32)cc1` [Example 187, 8-((4-(3-Fluorophenyl)piperazin-1-yl)methyl)-6-(4-methoxybenzyl)thieno[3,2-e][1,2,4]triazolo[1,5-c]pyrimidin-5(6H)-one], the “PDE1b (pEC50)” value is reported as >7.
In the case of `COc1ccc(Cn2c(=O)n3ncnc3c3c(CN4CCC(Oc5ccccc5)C4)csc32)cc1` (stereo not drawn) [Example 189, 6-(4-Methoxybenzyl)-9-((3-phenoxypyrrolidin-1-yl)methyl)thieno[3,2-e][1,2,4]triazolo[1,5-c]pyrimidin-5(6H)-one], the “PDE1b (pEC50)” value is reported as >7.
`COc1ccc(Cn2c(=O)n3ncnc3c3cc(CN4CCC(N5CCOCC5)CC4)sc32)cc1` [Example 191] was tested, and the “PDE1b (pEC50)” value was >7.
In the case of `COc1ccc(Cn2c(=O)n3ncnc3c3cc(CN4CCCN(C(C)=O)CC4)sc32)cc1` [Example 193, 8-((4-Acetyl-1,4-diazepan-1-yl)methyl)-6-(4-methoxybenzyl)thieno[3,2-e][1,2,4]triazolo[1,5-c]pyrimidin-5(6H)-one], the “PDE1b (pEC50)” value is reported as >7.
`COc1ccc(Cn2c(=O)n3ncnc3c3cc(CN4CCCOCC4)sc32)c(F)c1F` [Example 194, 8-((1,4-Oxazepan-4-yl)methyl)-6-(2,3-difluoro-4-methoxybenzyl)thieno[3,2-e][1,2,4]triazolo[1,5-c]pyrimidin-5(6H)-one] was tested, and the “PDE1b (pEC50)” value was >7.
`COc1ccc(Cn2c(=O)n3ncnc3c3c(CN(C)CC4CCOCC4)csc32)cc1` [Example 199, 6-(4-Methoxybenzyl)-9-((methyl((tetrahydro-2H-pyran-4-yl)methyl)amino)methyl)thieno[3,2-e][1,2,4]triazolo[1,5-c]pyrimidin-5(6H)-one] was tested, and the “PDE1b (pEC50)” value was >7.
`COc1ccc(Cn2c(=O)n3ncnc3c3cc(CN4C[C@@H](C)O[C@@H](C)C4)sc32)cc1F` [Example 201, 8-(((2R,6S)-2,6-Dimethylmorpholino)methyl)-6-(3-fluoro-4-methoxybenzyl)thieno[3,2-e][1,2,4]triazolo[1,5-c]pyrimidin-5(6H)-one] was tested, and the “PDE1b (pEC50)” value was >7.
`COc1ccc(Cn2c(=O)n3ncnc3c3c(CNCC4CCOCC4)csc32)cc1` [Example 203, 6-(4-Methoxybenzyl)-9-((((tetrahydro-2H-pyran-4-yl)methyl)amino)methyl)thieno[3,2-e][1,2,4]triazolo[1,5-c]pyrimidin-5(6H)-one] was tested, and the “PDE1b (pEC50)” value was >7.
In the case of `C[C@@H]1CN(Cc2cc3c(s2)n(Cc2ccc(F)c(Cl)c2)c(=O)n2ncnc32)C[C@H](C)O1` [Example 205, 6-(3-Chloro-4-fluorobenzyl)-8-(((2R,6S)-2,6-dimethylmorpholino)methyl)thieno[3,2-e][1,2,4]triazolo[1,5-c]pyrimidin-5(6H)-one], the “PDE1b (pEC50)” value is reported as >7.
`COc1ccc(Cn2c(=O)n3ncnc3c3cc(CN4CCS(=O)(=O)CC4)sc32)cc1` [Example 206, 8-((1,1-Dioxidothiomorpholino)methyl)-6-(4-methoxybenzyl)thieno[3,2-e][1,2,4]triazolo[1,5-c]pyrimidin-5(6H)-one] was tested, and the “PDE1b (pEC50)” value was >7.
`COc1ccc(Cn2c(=O)n3ncnc3c3cc(CN4CCOCC4)sc32)cc1F` [Example 207, 6-(3-Fluoro-4-methoxybenzyl)-8-(morpholinomethyl)thieno[3,2-e][1,2,4]triazolo[1,5-c]pyrimidin-5(6H)-one] was tested, and the “PDE1b (pEC50)” value was >7.

Source: US10092575B2, “Substituted thiophene- and furan-fused azolopyrimidine-5-(6H)-one compounds” (DART NEUROSCIENCE (CAYMAN) LTD., priority 2012, dated 2018)
